According to patent US6413948B1, “Pharmaceutical compositions and methods of effecting a neuronal activity in an animal using naaladase inhibitors” (Guilford Pharmaceuticals Inc., priority 1996, dated 2002):
Read-outs that look alike come from different tables or passages of the source. Residues, ends and D or L forms follow the SMILES beside them.

What was measured:
NAALADase [1] = target: T1, NAALADase (UniProt P70627); experiment: In vitro inhibition of NAALADase activity; type: biochemical; conditions: for Ki: [3H]Glu liberated from [3H]NAAG, synaptosomal protein, 15 minutes at 37° C.; for NAALADase inhibiting activity (comparison in words): compared with 2-(phosphonomethyl)pentanedioic acid
T1 construct: Ki; other: compared with 2-(phosphonomethyl)pentanedioic acid
Method: Various compounds of formula I were tested for in vitro inhibition of NAALADase activity.
Substrate and product were resolved by anion-exchange liquid chromatography. […] Quisqualate (100 μM) was included in parallel assay tubes to confirm the specificity of the measurements.

cortical cell cultures [2] = experiment: In vitro assay of NAALADase inhibitors on ischemia (potassium cyanide and 2-deoxyglucose, LDH release); type: cell-based, rats; conditions: Rattus norvegicus, 1 h, read-out: EC50 (concentration required to cause a 50% reduction in glutamate toxicity following an ischemic insult)
Method: The methods for this assay are described in detail below.
Dissociated cortical cell cultures are prepared using the papain-dissociation method of Heuttner and Baughman (1986) as modified by Murphy and Baraban (1990). […] Fetuses of embryonic day 17 are removed from timed pregnancy rats (Harlan Sprague Dawley). The cortex is rapidly dissected out in Dulbecco's phosphate-buffered saline, stripped of meninges, and incubated in a papain solution for 15 minutes at 37° C. The tissue is then mechanically triturated and pelleted at 500 g (1000-2000 rpm on swinging bucket Beckman). The pellet is resuspended in a DNAase solution, triturated with a 10 ml pipette ×15-20, layered over a “10×10” solution containing albumin and trypsin inhibitor (see TABLE VII for an example of a “10×10” solution), repelleted, and resuspended in a plating medium containing 10% fetal bovine serum (HyClone A-1111-L), 5% heat-inactivated Equine serum (HyClone A-3311-L), and 84% modified Earle's basal medium (MEM) (Gibco 51200-020) with high glucose (4.5 g/L), and 1 g/L NaHCO3. Each 24-well plate is pretreated with poly-D-lysine (0.5 ml/well of 10 μg/ml) for 1 h and rinsed with water before plating. Cultures are plated at 2.5×10^6 cells/ml with each well of a 24 well plate receiving 500 μl/well. Alternatively, 35 mm dishes can be plated at 2 ml/dish, 6 well plates at 2 ml/well, or 12 well plates at 1 ml/well. After plating, 50% of the medium is changed every 3-4 days with growth serum containing 5% heat-inactivated Equine serum (HyClone A3111-L), 95% modified Earle's basal medium (MEM)(Gibco 51200-020), and 1% L-Glutamine (Gibco 25030-081). Experiments are performed after 21 days in cultures. Cultures are maintained in a 5% CO2 atmosphere at 37° C.
Twenty-one to twenty-four days following the initial cortical cell plating, the experiment is performed. The cultures are washed three times in HEPES buffered saline solution containing no phosphate. […] At the end of 24 hours, the cultures are analyzed for release of the cytosolic enzyme lactate dehydrogenase (LDH), a standard measure of cell lysis. LDH measurements are performed according to the method of Koh and Choi, J. Neuroscience Methods (1987).
Release of the cytosolic enzyme lactate dehydrogenase (LDH), a standard measure of cell lysis, is used to quantify injury (Koh and Choi, 1987). LDH-activity measurements are normalized to control for variability between culture preparations (Koh and Choi, 1987). […] This control measurement is subtracted from each experimental point. […] Only main effects of NAALADase inhibitors are considered; interactions between dose and condition are not examined statistically.

cortical cell cultures [3] = experiment: In vitro toxicity of NAAG; type: cell-based, rats; conditions: 20 minutes
Method: See TABLE VII for the Dissociated Culture Protocol as used herein. […] Experiments are performed after 21 days in cultures.
At the end of exposure, the cells are washed once with HEPES buffered saline solution and then replaced with serum free modified Earle's basal medium. The cultures are then returned to the CO2 incubator for 24 hour recovery.
This control measurement is subtracted from each experimental point.

NAALADase [4] = conditions: NAAG as substrate of NAALADase; cited from earlier work
[5] = system: spinal cord organotypic cultures; experiment: Spinal cord culture model of ALS (THA toxicity, ChAT activity); type: cell-based, rats; conditions: Table XII; THA without inhibitor
Method: Organotypic cultures were prepared from lumbar spinal cord of 8 day old rats, as described by Rothstein et al., J. Neurochem., Vol. 65, No. 2 (1995), and Rothstein et al., Proc. Natl. Acad. Sci. USA, Vol. 90, pp. 6591-6595 (July 1993). In brief, lumbar spinal cords were removed and sliced into 300 […] sections, and five slices were placed on Millipore CM semipermeable 30-mm-diameter membrane inserts. The inserts were placed on 1 ml of culture medium in 35-mm-diameter culture wells. Culture medium consisted of 50% minimal essential medium and phosphate-free HEPES (25 mM), 25% heat-inactivated horse serum, and 25% Hanks' balanced salt solution (GIBCO) supplemented with D-glucose (25.6 mg/ml) and glutamine (2 mM), at a final pH of 7.2. Antibiotic and antifungal agents were not used. Cultures were incubated at 37° C. in 5% CO2 containing humidified environment (Forma Scientific). Culture medium, along with any added pharmacological agents, was changed twice weekly.
Drugs were incubated for an additional 13 to 20 days with the 100 μM THA. At the end of this period, cultures were collected assayed for ChAT activity as described below.
To determine choline acetyltransferase (ChAT) activity, the spinal cord tissues in each dish (five slices) were pooled and frozen (−75° C.) until assay. ChAT activity was measured radiometrically by described methods using [^3H] acetyl-CoA (Amersham; Fonnum, 1975). Protein content of tissue homogenate was determined by a Coomassi Protein Assay kit (Pierce, Rockford, Ill.).

MPTP lesioned mice = experiment: In vivo assay on Parkinson's Disease (MPTP lesioned mice, TH immunostaining); parameters: species or system CD1 white mice
Method: MPTP lesioning of dopaminergic neurons in mice was used as an animal model of Parkinson's Disease, as described by Steiner, Proc. Natl. Acad. Sci., Vol. 94, pp. 2019-2024 (March 1997). In brief, four week old male CD1 white mice were dosed IP with 30 mg/kg of MPTP for 5 days. […] At 18 days following MPTP treatment, the mice were sacrificed and their brains were removed and sectioned. Immunostaining was performed on saggital and coronal brain sections using anti-tyrosine hydroxylase (TH) antibodies to quantitate survival and recovery of dopaminergic neurons.

[6] = treated during ischemic insult and for one hour thereafter

## O=C(O)CCC(CP(=O)(O)CCC(=O)O)C(=O)O (centres unmarked) [2-[[(2-carboxyethyl)hydroxyphosphinyl]methyl]pentanedioic acid]
NAALADase [1]
  Ki: 1.89 ± 0.19 nM
  NAALADase inhibiting activity (comparison in words): lower NAALADase inhibiting activity

## O=C(O)CCC(CP(=O)(O)c1ccccc1)C(=O)O (centres unmarked) [drawing 43]
Cortical cell cultures [2]; [6]
  EC50: 100 nM

## O=C(O)CCC(CP(=O)(O)CCc1ccccc1)C(=O)O (centres unmarked) [drawing 23]
NAALADase [1]
  Ki: 148 nM

## O=C(O)CCC(CP(=O)(O)Cc1ccc(F)cc1)C(=O)O (centres unmarked) [drawing 47]
Cortical cell cultures [2]; [6]
  EC50: 79 nM

## O=C(O)C(CCc1ccccc1)CP(=O)(O)O (centres unmarked) [drawing 40]
Cortical cell cultures [2]; [6]
  EC50: 373 nM

## O=C(O)CCC(CP(=O)(O)Cc1ccccc1F)C(=O)O (centres unmarked)
NAALADase [1]
  Ki: 145 nM

## O=C(O)CCC(CP(=O)(O)Cc1ccccc1)C(=O)O (centres unmarked) [drawing 42]
Cortical cell cultures [2]; [6]
  EC50: 132 nM

## O=C(O)CCC(CP(=O)(O)c1ccccc1)C(=O)O (centres unmarked) [drawing 19]
NAALADase [1]
  Ki: 35.8 nM

## O=C(O)CCC(CP(=O)(O)CCCc1ccccc1)C(=O)O (centres unmarked) [drawing 50]
Cortical cell cultures [2]; [6]
  EC50: 4320 nM

## CC(=O)N[C@@H](CC(=O)O)C(=O)N[C@@H](CCC(=O)O)C(=O)O [NAAG, N-acetyl-aspartyl-glutamate] (Ac-Asp-Glu-OH)
Cortical cell cultures [3]; NAAG 3 μM
  % Toxicity: 3.51 (n = 1) %
Cortical cell cultures [3]; NAAG 10 μM
  % Toxicity: 4.30 ± 3.12 (n = 3) %
Cortical cell cultures [3]; NAAG 30 μM
  % Toxicity: 11.40 ± 6.17 (n = 3) %
Cortical cell cultures [3]; NAAG 100 μM
  % Toxicity: 12.66 ± 5.50 (n = 3) %
Cortical cell cultures [3]; NAAG 300 μM
  % Toxicity: 13.50 ± 4.0 (n = 3) %
Cortical cell cultures [3]; NAAG 1 mM
  % Toxicity: 21.46 ± 4.20 (n = 3) %
Cortical cell cultures [3]; NAAG 3 mM
  % Toxicity: 45.11 ± 4.96 (n = 3) %
NAALADase [4]
  Km: 540 nM

## CCCCP(=O)(O)CC(CCC(=O)O)C(=O)O (centres unmarked) [drawing 21]
NAALADase [1]
  Ki: 113 nM

## Cc1ccc(CP(=O)(O)CC(CCC(=O)O)C(=O)O)cc1 (centres unmarked) [drawing 27]
NAALADase [1]
  Ki: 68 nM

## O=C(O)CCC(CP(=O)(O)Cc1ccccc1C(F)(F)F)C(=O)O (centres unmarked)
NAALADase [1]
  Ki: 92 nM

## N[C@H](C(=O)O)[C@H](O)C(=O)O [THA, threohydroxyaspartate, reference compound]
[5]
  ChAT Activity (% of Control): 0 % of Control

## Cc1ccc(CP(=O)(O)CC(CCC(=O)O)C(=O)O)cc1 (centres unmarked) [drawing 46]
Cortical cell cultures [2]; [6]
  EC50: 37 nM

## Cc1ccc(P(=O)(O)CC(CCC(=O)O)C(=O)O)cc1 (centres unmarked)
NAALADase [1]
  Ki: 204 nM

## O=C(O)CCC(CP(=O)(O)C(O)c1ccccc1)C(=O)O (centres unmarked) [drawing 44]
Cortical cell cultures [2]; [6]
  EC50: 767 nM

## CN1CC=C(c2ccccc2)CC1 [MPTP, reference compound]
MPTP lesioned mice; MPTP and vehicle
  loss of functional dopaminergic terminals as compared to non-lesioned mice: approximately 68%
MPTP lesioned mice; MPTP/vehicle, MPTP 30 mg/kg IP for 5 days
  Percent Strial TH Innervation Density (mean ± SEM): 7.82 ± 0.68%

## O=C(O)CC(CP(=O)(O)O)C(=O)O (centres unmarked) [2-(phosphonomethyl)succinic acid]
NAALADase [1]
  Ki: 700 ± 67.3 nM
  NAALADase inhibiting activity (comparison in words): much lower NAALADase inhibiting activity

## Cc1cccc(P(=O)(O)CC(CCC(=O)O)C(=O)O)c1 (centres unmarked)
NAALADase [1]
  Ki: 180 nM

## O=C(O)CCC(CP(=O)(O)Cc1c(F)c(F)c(F)c(F)c1F)C(=O)O (centres unmarked) [drawing 48]
Cortical cell cultures [2]; [6]
  EC50: 2 nM

## CP(=O)(O)CC(CCC(=O)O)C(=O)O (centres unmarked)
NAALADase [1]
  Ki: 1100 nM

## O=C(O)CCC(CP(=O)(O)Cc1cccc(C(F)(F)F)c1)C(=O)O (centres unmarked) [drawing 41]
Cortical cell cultures [2]; [6]
  EC50: 112 nM

## O=C(O)CCC(CP(=O)(O)Cc1ccccc1)C(=O)O (centres unmarked) [drawing 18]
NAALADase [1]
  Ki: 34.1 nM

## O=C(O)CCC(CP(=O)(O)Cc1ccc(O)cc1)C(=O)O (centres unmarked)
NAALADase [1]
  Ki: 117 nM

## O=C(O)CCC(CP(=O)(O)c1ccc(F)cc1)C(=O)O (centres unmarked)
NAALADase [1]
  Ki: 532 nM

## O=C(O)CCC(CP(=O)(O)Cc1ccc(OCc2ccccc2)cc1)C(=O)O (centres unmarked)
NAALADase [1]
  Ki: 177 nM

## O=C(O)CCCC(CP(=O)(O)O)C(=O)O (centres unmarked)
NAALADase [1]
  Ki: 185 nM

## O=C(O)CCC(CP(=O)(O)CCc1ccccc1)C(=O)O (centres unmarked) [drawing 49]
Cortical cell cultures [2]; [6]
  EC50: 834 nM

## O=C(O)CCC(CP(=O)(O)CCCc1ccccc1)C(=O)O (centres unmarked) [drawing 24]
NAALADase [1]
  Ki: 232 nM

## CCCCP(=O)(O)CC(CCC(=O)O)C(=O)O (centres unmarked) [drawing 45]
Cortical cell cultures [2]; [6]
  EC50: 794 nM

## O=C(O)CCC(CP(=O)(O)O)C(=O)O (centres unmarked) [drawing 39]
Cortical cell cultures [2]
  EC50: 0.67 nM

## O=C(O)CCC(CP(=O)(O)Cc1c(F)c(F)c(F)c(F)c1F)C(=O)O (centres unmarked) [drawing 31]
NAALADase [1]
  Ki: 22.7 nM

## O=C(O)C(CCc1ccccc1)CP(=O)(O)O (centres unmarked) [drawing 33]
NAALADase [1]
  Ki: 199 nM

## O=C(O)CCC(CP(=O)(O)Cc1ccc(F)cc1)C(=O)O (centres unmarked) [drawing 28]
NAALADase [1]
  Ki: 70 nM

## O=C(O)CCC(CP(=O)(O)Cc1cccc(C(F)(F)F)c1)C(=O)O (centres unmarked) [drawing 36]
NAALADase [1]
  Ki: 22.5 nM

## COc1ccc(CP(=O)(O)CC(CCC(=O)O)C(=O)O)cc1 (centres unmarked) [drawing 51]
Cortical cell cultures [2]; [6]
  EC50: 1670 nM
